% of control, % binding and dTagg data for six molecules are collected here from ChEMBL document CHEMBL5465560, “Selectivity Literature for EUbOPEN Chemogenomic Library” (2024).

The target of experiment [1] is Mitogen-activated protein kinase 8 (Homo sapiens, UniProt P45983). Put plainly: Selectivity interaction (KinomeScan (DiscoverX)) EUB0000607a MAPK8. Conditions: at 10 µM.
The target of experiment [2] is Tyrosine-protein kinase Fyn (Homo sapiens) (UniProt P06241). As to the kind of experiment: Selectivity interaction (KinomeScan (DiscoverX)) EUB0000666a FYN. Conditions: at 10 µM.
Experiment [3] concerns the target T1, Testis-specific serine/threonine-protein kinase 1 (Homo sapiens) (UniProt Q9BXA7).
T1 sequence (whole entry): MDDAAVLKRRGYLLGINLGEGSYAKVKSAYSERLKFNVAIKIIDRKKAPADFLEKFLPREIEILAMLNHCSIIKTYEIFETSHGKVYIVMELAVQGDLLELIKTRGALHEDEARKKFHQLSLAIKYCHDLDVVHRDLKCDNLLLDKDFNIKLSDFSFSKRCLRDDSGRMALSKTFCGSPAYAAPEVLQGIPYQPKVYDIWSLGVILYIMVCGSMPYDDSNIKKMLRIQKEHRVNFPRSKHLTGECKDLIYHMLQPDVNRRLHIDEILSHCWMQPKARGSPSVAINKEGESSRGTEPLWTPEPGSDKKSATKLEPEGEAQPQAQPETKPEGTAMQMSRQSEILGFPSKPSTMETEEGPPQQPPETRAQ
Put plainly: Selectivity interaction (KinomeScan (DiscoverX)) EUB0000229b TSSK1B. Conditions: at 10 µM.

In experiment [4] the target is Dual specificity testis-specific protein kinase 1 (Homo sapiens) (UniProt Q15569). As to the kind of experiment: Selectivity interaction (KinomeScan (DiscoverX)) EUB0001619a TESK1. The conditions noted are these: at 1 µM.
Experiment [5] has as its target T2, MAP/microtubule affinity-regulating kinase 4 (Homo sapiens) (UniProt Q96L34).
T2 sequence (whole entry): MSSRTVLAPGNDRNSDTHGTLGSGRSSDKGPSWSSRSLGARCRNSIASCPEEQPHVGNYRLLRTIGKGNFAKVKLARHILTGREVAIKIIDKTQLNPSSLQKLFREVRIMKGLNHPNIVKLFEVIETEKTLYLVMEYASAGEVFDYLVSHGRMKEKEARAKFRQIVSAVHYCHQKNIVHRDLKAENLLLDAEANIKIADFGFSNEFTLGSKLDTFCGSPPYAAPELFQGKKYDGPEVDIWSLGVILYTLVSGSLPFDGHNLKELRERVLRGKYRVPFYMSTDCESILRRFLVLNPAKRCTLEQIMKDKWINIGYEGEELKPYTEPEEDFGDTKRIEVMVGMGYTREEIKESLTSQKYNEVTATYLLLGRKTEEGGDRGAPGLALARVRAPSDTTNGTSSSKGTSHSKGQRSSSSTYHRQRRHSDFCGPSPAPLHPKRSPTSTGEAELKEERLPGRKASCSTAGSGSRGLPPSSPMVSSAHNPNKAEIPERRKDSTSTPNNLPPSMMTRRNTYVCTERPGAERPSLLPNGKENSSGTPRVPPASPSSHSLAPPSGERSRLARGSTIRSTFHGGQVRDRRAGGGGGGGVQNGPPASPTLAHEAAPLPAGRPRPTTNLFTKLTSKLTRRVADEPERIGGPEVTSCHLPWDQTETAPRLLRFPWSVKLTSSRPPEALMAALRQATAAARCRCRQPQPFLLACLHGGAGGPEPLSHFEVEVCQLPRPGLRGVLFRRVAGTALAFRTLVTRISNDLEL
Put plainly: Selectivity interaction (KinomeScan (DiscoverX)) EUB0001619a MARK4. Conditions: at 1 µM.

The target of experiment [6] is Death-associated protein kinase 1 (Homo sapiens, UniProt P53355). Conditions: at 10 µM.
The target of experiment [7] is T3, Histone-lysine N-methyltransferase NSD3 (Homo sapiens) (UniProt Q9BZ95).
T3 sequence (whole entry): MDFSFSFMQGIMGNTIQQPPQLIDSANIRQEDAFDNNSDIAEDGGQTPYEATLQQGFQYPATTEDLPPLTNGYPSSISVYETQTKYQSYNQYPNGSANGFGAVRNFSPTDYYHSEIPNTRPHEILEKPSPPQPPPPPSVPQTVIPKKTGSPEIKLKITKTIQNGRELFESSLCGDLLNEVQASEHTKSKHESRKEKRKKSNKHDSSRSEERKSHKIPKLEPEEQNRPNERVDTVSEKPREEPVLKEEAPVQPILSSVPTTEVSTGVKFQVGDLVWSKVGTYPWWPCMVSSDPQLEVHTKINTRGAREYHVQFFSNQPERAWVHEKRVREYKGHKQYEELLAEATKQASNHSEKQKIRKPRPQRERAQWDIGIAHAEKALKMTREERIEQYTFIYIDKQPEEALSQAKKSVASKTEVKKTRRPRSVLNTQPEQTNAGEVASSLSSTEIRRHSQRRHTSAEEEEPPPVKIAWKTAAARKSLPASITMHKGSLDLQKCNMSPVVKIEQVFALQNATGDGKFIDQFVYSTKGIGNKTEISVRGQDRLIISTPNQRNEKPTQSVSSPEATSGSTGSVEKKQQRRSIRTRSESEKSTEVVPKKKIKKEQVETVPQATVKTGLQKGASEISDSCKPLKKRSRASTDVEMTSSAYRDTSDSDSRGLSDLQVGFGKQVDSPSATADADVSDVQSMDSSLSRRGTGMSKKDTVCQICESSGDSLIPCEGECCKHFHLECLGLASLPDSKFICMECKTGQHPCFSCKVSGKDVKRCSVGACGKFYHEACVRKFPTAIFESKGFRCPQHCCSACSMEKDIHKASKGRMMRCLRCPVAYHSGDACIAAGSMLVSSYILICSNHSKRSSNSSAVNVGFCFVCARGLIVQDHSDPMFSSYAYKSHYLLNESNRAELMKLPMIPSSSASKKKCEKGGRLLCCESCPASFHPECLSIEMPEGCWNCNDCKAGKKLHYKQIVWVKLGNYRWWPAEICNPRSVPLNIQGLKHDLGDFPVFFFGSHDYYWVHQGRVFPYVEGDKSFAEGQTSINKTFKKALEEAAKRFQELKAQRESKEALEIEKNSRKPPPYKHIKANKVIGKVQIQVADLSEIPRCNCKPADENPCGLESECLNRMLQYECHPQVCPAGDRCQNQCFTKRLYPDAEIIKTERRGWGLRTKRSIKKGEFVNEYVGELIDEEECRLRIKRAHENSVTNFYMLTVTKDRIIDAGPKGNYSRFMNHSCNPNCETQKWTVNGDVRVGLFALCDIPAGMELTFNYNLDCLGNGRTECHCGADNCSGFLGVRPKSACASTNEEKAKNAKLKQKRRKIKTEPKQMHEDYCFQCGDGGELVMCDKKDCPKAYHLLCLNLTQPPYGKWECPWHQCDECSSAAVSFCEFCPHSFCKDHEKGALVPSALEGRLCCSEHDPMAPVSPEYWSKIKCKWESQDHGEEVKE
As to the kind of experiment: Selectivity interaction (PWWP, WD40, and Tudor domain panel (DSLS measurements, literature)) EUB0000270b NSD3.

Sequence of Death-associated protein kinase 1 (P53355 whole entry, looked up): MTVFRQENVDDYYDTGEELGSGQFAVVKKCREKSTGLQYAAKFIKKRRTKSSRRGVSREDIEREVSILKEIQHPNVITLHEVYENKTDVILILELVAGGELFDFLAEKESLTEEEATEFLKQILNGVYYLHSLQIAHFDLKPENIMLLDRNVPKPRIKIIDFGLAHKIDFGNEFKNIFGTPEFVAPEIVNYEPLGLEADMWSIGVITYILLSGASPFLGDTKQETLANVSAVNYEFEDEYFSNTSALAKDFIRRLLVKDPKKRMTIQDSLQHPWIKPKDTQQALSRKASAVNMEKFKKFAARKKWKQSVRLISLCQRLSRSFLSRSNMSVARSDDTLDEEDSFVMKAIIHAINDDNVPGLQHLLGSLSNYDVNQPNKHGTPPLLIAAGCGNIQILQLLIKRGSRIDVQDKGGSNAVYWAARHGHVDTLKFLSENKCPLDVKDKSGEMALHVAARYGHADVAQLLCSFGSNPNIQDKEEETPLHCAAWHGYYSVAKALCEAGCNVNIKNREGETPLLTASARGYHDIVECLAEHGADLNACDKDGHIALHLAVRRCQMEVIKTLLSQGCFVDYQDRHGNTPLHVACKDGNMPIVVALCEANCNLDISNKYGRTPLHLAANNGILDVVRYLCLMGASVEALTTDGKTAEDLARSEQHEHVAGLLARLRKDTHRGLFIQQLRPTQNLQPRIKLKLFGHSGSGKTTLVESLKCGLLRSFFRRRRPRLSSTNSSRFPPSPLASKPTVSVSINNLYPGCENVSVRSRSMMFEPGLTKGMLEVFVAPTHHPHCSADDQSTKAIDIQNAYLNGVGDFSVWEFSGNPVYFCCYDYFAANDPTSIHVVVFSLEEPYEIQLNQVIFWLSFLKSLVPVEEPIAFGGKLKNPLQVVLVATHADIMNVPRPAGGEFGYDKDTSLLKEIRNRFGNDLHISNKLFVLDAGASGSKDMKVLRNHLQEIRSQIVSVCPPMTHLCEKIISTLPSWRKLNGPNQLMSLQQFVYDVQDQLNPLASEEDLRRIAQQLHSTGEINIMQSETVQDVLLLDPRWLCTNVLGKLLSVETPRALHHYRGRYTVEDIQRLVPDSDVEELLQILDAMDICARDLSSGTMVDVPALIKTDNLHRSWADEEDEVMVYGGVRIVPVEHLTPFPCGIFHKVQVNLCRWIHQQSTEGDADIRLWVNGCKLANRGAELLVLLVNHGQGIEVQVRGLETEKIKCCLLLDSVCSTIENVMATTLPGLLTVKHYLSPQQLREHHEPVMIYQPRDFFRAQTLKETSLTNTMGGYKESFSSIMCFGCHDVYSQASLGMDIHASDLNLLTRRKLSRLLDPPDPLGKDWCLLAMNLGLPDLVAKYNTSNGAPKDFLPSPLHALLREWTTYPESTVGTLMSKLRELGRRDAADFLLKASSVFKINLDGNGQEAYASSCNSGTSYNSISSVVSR
Sequence of Dual specificity testis-specific protein kinase 1 (Homo sapiens) (Q15569 whole entry, looked up): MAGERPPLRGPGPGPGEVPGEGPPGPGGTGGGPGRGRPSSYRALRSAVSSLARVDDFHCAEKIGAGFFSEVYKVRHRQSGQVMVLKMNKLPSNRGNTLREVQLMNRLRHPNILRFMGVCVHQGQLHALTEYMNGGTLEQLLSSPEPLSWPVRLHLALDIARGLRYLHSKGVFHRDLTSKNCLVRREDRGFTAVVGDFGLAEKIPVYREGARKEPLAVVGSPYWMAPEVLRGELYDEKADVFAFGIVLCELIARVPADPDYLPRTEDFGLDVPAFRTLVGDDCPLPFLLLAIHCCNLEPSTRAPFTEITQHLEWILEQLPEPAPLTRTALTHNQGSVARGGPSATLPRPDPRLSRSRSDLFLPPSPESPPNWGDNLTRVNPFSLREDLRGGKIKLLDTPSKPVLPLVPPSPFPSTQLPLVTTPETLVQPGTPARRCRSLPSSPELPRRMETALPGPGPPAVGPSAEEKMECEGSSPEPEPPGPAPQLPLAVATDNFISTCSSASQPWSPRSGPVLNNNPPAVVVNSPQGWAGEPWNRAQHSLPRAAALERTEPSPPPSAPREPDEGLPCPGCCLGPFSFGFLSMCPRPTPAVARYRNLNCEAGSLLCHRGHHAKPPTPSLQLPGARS
Sequence of Mitogen-activated protein kinase 8 (P45983 whole entry): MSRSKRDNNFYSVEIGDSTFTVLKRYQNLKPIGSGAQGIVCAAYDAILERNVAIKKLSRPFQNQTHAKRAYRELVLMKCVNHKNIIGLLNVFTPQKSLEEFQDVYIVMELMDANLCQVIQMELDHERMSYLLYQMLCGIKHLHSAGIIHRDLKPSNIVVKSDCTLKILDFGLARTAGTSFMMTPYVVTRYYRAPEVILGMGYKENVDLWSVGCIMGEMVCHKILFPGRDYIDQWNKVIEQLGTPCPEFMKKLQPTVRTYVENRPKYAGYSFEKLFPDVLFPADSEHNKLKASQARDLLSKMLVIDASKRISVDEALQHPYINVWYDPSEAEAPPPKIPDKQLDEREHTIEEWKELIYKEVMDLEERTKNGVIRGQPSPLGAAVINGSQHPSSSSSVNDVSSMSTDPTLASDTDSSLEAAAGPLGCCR
Sequence of Tyrosine-protein kinase Fyn (Homo sapiens) (P06241 2-537 limits assumed): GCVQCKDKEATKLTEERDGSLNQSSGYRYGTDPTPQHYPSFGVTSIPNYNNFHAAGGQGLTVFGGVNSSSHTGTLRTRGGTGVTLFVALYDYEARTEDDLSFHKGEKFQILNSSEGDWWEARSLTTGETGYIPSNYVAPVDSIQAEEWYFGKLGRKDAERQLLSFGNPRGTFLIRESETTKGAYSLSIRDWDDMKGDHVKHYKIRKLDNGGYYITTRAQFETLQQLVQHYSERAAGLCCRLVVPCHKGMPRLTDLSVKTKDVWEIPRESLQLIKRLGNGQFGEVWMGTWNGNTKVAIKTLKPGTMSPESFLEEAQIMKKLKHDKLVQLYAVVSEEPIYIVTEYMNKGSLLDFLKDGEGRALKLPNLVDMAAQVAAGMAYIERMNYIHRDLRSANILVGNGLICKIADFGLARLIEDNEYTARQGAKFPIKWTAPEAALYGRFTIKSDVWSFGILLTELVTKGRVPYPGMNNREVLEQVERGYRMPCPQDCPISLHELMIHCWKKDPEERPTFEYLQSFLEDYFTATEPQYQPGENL

Take `CNC(=O)Nc1ccc(-c2nc(N3CC4CCC(C3)O4)c3cnn(C4CCC5(CC4)OCCO5)c3n2)cc1`: the % of control in experiment [1] was 91%. On to `O=C(NOC[C@H](O)CO)c1ccc(F)c(F)c1Nc1ccc(I)cc1F`, for which the % of control in experiment [2] stood at 64%. The molecule `COc1cc(N(C)c2ccnc3ccc(C(F)(F)F)cc23)cc(OC)c1OC` gave a % binding in experiment [3] of 91%. As for `N#Cc1cccc(-c2c[nH]c3ncnc(N4CCOCC4)c23)c1`, the results for the % of control in experiment [4] and in experiment [5] were 100% and 82%, respectively. `CCN(CC)CCCCNc1ncc2cc(-c3cc(OC)cc(OC)c3)c(NC(=O)NC(C)(C)C)nc2n1` had a % of control in experiment [6] of 100%. Consider `Cc1cc(CN)cc(C)c1-c1ncn(C)c1-c1cncn1C`, for which the dTagg in experiment [7] was 0.7 K.
